Where two headings read alike, the source gives them in different places. Non-standard residues stand in square brackets, D forms with d. Residues, ends and D or L forms follow the SMILES beside them.
Key:
[1] = system: EpiAirway™ human-derived tracheal/bronchial epithelial cells; experiment: Cytotoxicity (LDH assay); type: cell-based
Protocol: The amount of cell death was assayed by measuring the loss of lactate dehydrogenase (LDH) from the cells using a CytoTox 96 Cytoxicity Assay Kit (Promega Corp., Madison, Wis.). Fifty microliters of sample was loaded into a 96-well assay plates. Fresh, cell-free culture medium was used as a blank. 50 μl of substrate solution was added to each well and the plates incubated for 30 minutes at room temperature in the dark. Following incubation, 50 μl of stop solution was added to each well and the plates read on an optical density plate reader at 490 nm.
The amount of cell death will be assayed by measuring the loss of lactate dehydrogenase (LDH) from the cells using a CytoTox 96 Cytotoxicity Assay Kit (Promega Corp., Madison, Wis.). Fifty microliters of sample will be loaded into a 96-well assay plates. Fresh, cell-free culture medium will be used as a blank. Fifty microliters of substrate solution will be added to each well and the plates incubated for 30 minutes at room temperature in the dark. Following incubation, 50 μl of stop solution will be added to each well and the plates read on an optical density plate reader at 490 nm. The measurement of LDH release into the basolateral media indicates relative cytotoxicity of the samples. One hundred percent lysis of control inserts with 0.3% Octylphenolpoly(ethyleneglycolether)×(TritonX-100) allows LDH values to be expressed as percentage of total lysis.
In some embodiments, The amount of cell death was assayed by measuring the release of lactate dehydrogenase (LDH) from the cells into the apical medium using a CytoTox 96 Cytotoxicity Assay Kit (Promega Corp., Madison, Wis.). One percent Octylphenolpoly (ethyleneglycolether)×(Triton X-100™) diluted in phosphate buffered saline (PBS) causes 100% lysis in cultured cells and served herein as a positive control for the LDH assay. Following the one hour incubation period with a test formulation (refer to Table 24 of Example 25 for details of test formulations), the total liquid volume of each insert was brought to a final volume of 200 μl with culture medium. The apical medium was then mixed by pipetting four times with a multichannel pipette set to a 100 μl volume. After mixing, a 100 μl sample from the apical side of each insert was transferred to a new 96-well plate. The apical media samples were sealed with a plate sealer and stored at room temperature for same day analysis or stored overnight at 4° C. for analysis the next day. To measure LDH levels, 5 μl of the 100 μl apical media sample was diluted in 45 μl DPBS in a new 96-well plate. Fresh, cell-free culture medium will be used as a blank. Fifty microliters of substrate solution was added to each well and incubated for 30 minutes at room temperature away from direct light. Following the 30 minute incubation, 50 μl of stop solution was added to each well. Optical density (OD) was measured at 490 nm with a uQuant absorbance plate reader from Biotek Instruments. The measurement of LDH release into the apical media indicates relative cytotoxicity of the samples. Percent cytotoxicity for each test formulation was calculated by subtracting the measured absorbance of the PBS control (basal level of LDH release) from the measured absorbance of the individual test formulation and then dividing that value by the measured absorbance for the 1% Triton X-100™ positive control, multiplied by 100.
An LDH assay was used to assess the cytotoxicity of the treatments. The LDH level was determined by CytoTox96 Non-Radioactive Cytotoxic Assay (Promega, Madison, Wis.) following the manufacturer's protocol. For basal-lateral LDH levels, triplicates of 50 ul of the basal medium were used to determine the LDH level. For apical LDH level, 150 ul of the diluted apical sample was removed by adding 150 ul of Epi-CM to the apical chamber, the medium was mixed by pipeting up and down, and 150 ul medium was removed and diluted 2× (for a final 8-fold dilution) for assay in triplicates of 50 ul.

[2] = system: EpiAirway™ human-derived tracheal/bronchial epithelial cells; experiment: Transepithelial electrical resistance (TER) across EpiAirway epithelial cell layer; type: cell-based; conditions: for TER(x)/TER(159) +/− SEM: ratio to PN159; for Relative TER Decrease: relative to PN159 = 1.0; for TER reduction (highest within the concentration range tested): EpiAirway epithelial cells
[3] = 15 minute treatment at the peptide's optimal concentration
[4] = 60 minute treatment at the peptide's optimal concentration

Molecule | TER(x)/TER(159) +/− SEM [2] | Relative TER Decrease [2] | further results
CC[C@H](C)[C@H](NC(=O)[C@H](CCCCN)NC(=O)[C@@H](NC(=O)[C@H](CCC(N)=O)NC(=O)[C@@H](N)CCCNC(=N)N)[C@@H](C)CC)C(=O)N[C@@H](Cc1c[nH]c2ccccc12)C(=O)N[C@@H](Cc1ccccc1)C(=O)N[C@@H](CCC(N)=O)C(=O)N[C@@H](CC(N)=O)C(=O)N[C@@H](CCCNC(=N)N)C(=O)N[C@@H](CCCNC(=N)N)C(=O)N[C@@H](CCSC)C(=O)N[C@@H](CCCCN)C(=O)N[C@@H](Cc1c[nH]c2ccccc12)C(=O)N[C@@H](CCCCN)C(=O)N[C@@H](CCCCN)C(N)=O [PN58] |  |  | LDH15 [1, 3]: 0.0007; LDH60 [1, 4]: 0.02; TER reduction ([2]; 250 μM peptide): −6%; TER reduction ([2]; 500 μM peptide): 64%; TER reduction ([2]; 1000 μM peptide): 88%
CC(C)C[C@@H](NC(=O)[C@H](N)CCCCN)C(=O)N[C@H](C)C(=O)N[C@H](CC(C)C)C(=O)N[C@H](CCCCN)C(=O)N[C@H](CC(C)C)C(=O)N[C@H](C)C(=O)N[C@H](CC(C)C)C(=O)N[C@H](CCCCN)C(=O)N[C@H](C)C(=O)N[C@H](CC(C)C)C(=O)N[C@H](CCCCN)C(=O)N[C@H](C)C(=O)N[C@H](C)C(=O)N[C@H](CC(C)C)C(=O)N[C@H](CCCCN)C(=O)N[C@H](CC(C)C)C(=O)N[C@H](C)C(N)=O [PN393, NH2-klalklalkalkaalkla-amide] | 1.06 +/− 0.00 |  | 
CC(C)C[C@H](NC(=O)[C@H](CC(C)C)NC(=O)[C@@H](CCCCN)NC(=O)[C@H](CC(C)C)NC(=O)[C@H](CC(C)C)NC(=O)[C@H](CCCCN)NC(=O)[C@@H](CCCCN)NC(=O)[C@@H](CC(C)C)NC(=O)[C@H](CC(C)C)NC(=O)[C@@H](CCCCN)NC(=O)[C@H](CCCCN)NC(=O)[C@H](CC(C)C)NC(=O)[C@@H](CC(C)C)NC(=O)[C@H](CCCCN)NC(=O)[C@@H](N)CC(C)C)C(N)=O [PN407, NH2-LKlLKkLlkKLLkLL-amide] (H-LK[dL]LK[dK]L[dL][dK]KLL[dK]LL-NH2) | 1.08 +/− 0.01 | 1.1 | 
CC(C)C[C@@H](NC(=O)[C@@H](C)N)C(=O)N[C@H](CCCCN)C(=O)N[C@H](CC(C)C)C(=O)N[C@H](C)C(=O)N[C@H](C)C(=O)N[C@H](CCCCN)C(=O)N[C@H](CC(C)C)C(=O)N[C@H](C)C(=O)N[C@H](CCCCN)C(=O)N[C@H](CC(C)C)C(=O)N[C@H](C)C(=O)N[C@H](CC(C)C)C(=O)N[C@H](CCCCN)C(=O)N[C@H](CC(C)C)C(=O)N[C@H](C)C(=O)N[C@H](CC(C)C)C(=O)N[C@H](CCCCN)C(N)=O [PN408, NH2-alklaaklaklalklalk-amide] | 1.05 +/− 0.01 |  | 
CC(C)C[C@H](NC(=O)[C@H](C)NC(=O)[C@H](CCCCN)NC(=O)[C@H](CC(C)C)NC(=O)[C@H](CC(N)=O)NC(=O)[C@H](CC(C)C)NC(=O)[C@H](CCCCN)NC(=O)[C@H](CC(C)C)NC(=O)[C@@H](CCCCN)NC(=O)[C@H](CC(C)C)NC(=O)[C@H](CCCCN)NC(=O)[C@H](CC(C)C)NC(=O)[C@H](C)NC(=O)[C@H](C)NC(=O)[C@H](CCCCN)NC(=O)[C@H](CC(C)C)NC(=O)[C@H](C)NC(=O)[C@H](CCCCN)NC(=O)[C@H](CC(C)C)NC(=O)[C@H](C)NC(=O)[C@H](CCCCN)NC(=O)[C@H](CC(C)C)NC(=O)[C@H](C)NC(=O)[C@H](CC(C)C)NC(=O)[C@@H](N)CCCCN)C(N)=O [PN422] (H-KLALKALKALKAALKL[dK]LKLNLKAL-NH2) | 0.47 +/− 0.07 |  | 
H-AAVALLPAVLLALLAPRKKRRQRRRPPQ-NH2 [PN27] |  |  | LDH15 [1, 3]: 0.0056; LDH60 [1, 4]: 0.035; TER reduction ([2]; 125 μM peptide): 81%; TER reduction ([2]; 250 μM peptide): 91%; TER reduction ([2]; 500 μM peptide): 94%
H-KALAALLKKAAKLLAALK-NH2 [PN442] | 0.93 +/− 0.03 |  | 
H-KALAALLKKLAKLLAALK-NH2 [PN444] | 0.82 +/− 0.05 |  | 
H-KALKLKAALALLAKLKLA-NH2 [PN424] | 0.59 +/− 0.07 |  | 
H-KETWWETWWTEWSQPGRKKRRQRRRRPPQ-NH2 [PN183] |  |  | TER reduction ([2]; 100 μM peptide): 25%; TER reduction ([2]; 500 μM peptide): 41%; TER reduction ([2]; 1000 μM peptide): 55%; TER reduction (highest within the concentration range tested) [2]: 55%
H-KLAAALLKKAKKLAAALL-NH2 [PN441] | 0.54 +/− 0.04 |  | 
H-KLALKLALKALKAALK-NH2 [PN418] | 1.05 +/− 0.05 |  | 
H-KLALKLALKALKAALKLALK-NH2 [PN419] | 1.23 +/− 0.01 |  | 
H-KLALKLALKALKAALKLALKLA-NH2 [PN420] | 0.77 +/− 0.05 |  | 
H-KLALKLALKALKAALKLALKLALK-NH2 [PN421] | 0.74 +/− 0.11 |  | 
H-KLALKLALKNLKAALKLA-NH2 [PN448] |  | 0.4 | 
H-KLAWKLALKALKAALKLA-NH2 [PN0425] |  | 1.0 | 
H-KLAWKLALKALKAAWKLA-NH2 [PN0427] |  | 1.0 | 
H-KLAWKLAWKALKAAWKLA-NH2 [PN0428] |  | 0.7 | 
H-KLWSAWPSLWSSLWKP-NH2 [PN228] |  |  | LDH15 [1]: 0.0063; LDH60 [1]: 0.046; TER reduction ([2]; 100 μM peptide): 9%; TER reduction ([2]; 500 μM peptide): 82%
H-LKLLKKLLKKLLKLL-NH2 [PN406] |  | 0.9 | 
H-LKTLATALTKLAKTLTTL-NH2 [PN443] |  | 0.3 | 
H-RKKRRQRRRPPQCAAVALLPAVLLALLAP-NH2 [PN28] |  |  | TER reduction (highest within the concentration range tested) [2]: functionally equivalent to PN27
H-RLAWRLALRALRAALRLA-NH2 [PN395] |  | 0.8 | 
Octylphenolpoly (ethyleneglycolether)×(Triton X-100™) [Triton X-100 ™, reference compound] |  |  | % Triton-X LDH Release ([1]; 1% Triton X-100, positive control): 100%
